The values that follow come from patent US20160060260A1, “BROMODOMAIN INHIBITORS FOR TREATING DISEASE” (Board of Regents, The University of Texas System, priority 2014, published 2016).

The target in the assay is T1, Recombinant human His-tagged Trim24-PHD-bromodomain (Homo sapiens, UniProt O15164).
T1 construct: Recombinant human His-tagged Trim24-PHD-bromodomain (produced in-house); made in house
T1 sequence (O15164 824-1006 limits assumed): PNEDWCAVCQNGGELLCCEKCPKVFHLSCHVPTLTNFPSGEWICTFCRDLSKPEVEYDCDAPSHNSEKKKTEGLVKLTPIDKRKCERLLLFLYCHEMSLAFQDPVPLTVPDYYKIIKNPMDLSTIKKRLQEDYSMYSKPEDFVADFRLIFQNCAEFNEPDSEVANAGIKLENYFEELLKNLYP
The experiment in a line: Trim24 AlphaScreen Assay. To be noted: 5 nM Trim24 protein, 15 nM biotinylated H3K23ac (1-33aa) peptide. It counts as binding. An outline of the steps: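 His-tagged Trim24-PHD-bromodomain, biotinylated H3K23ac (1-33aa) peptide and compound incubated 1 h at room temperature in 50 mM Hepes pH 7.5, 100 mM NaCl, 0.12 mM Triton X-100.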
In general terms: In Alpha technology, singlet oxygen from a donor bead excites a nearby acceptor bead.
Broadly, the IC50 is the point on the concentration scale where inhibition reaches its midpoint. Consider `Cc1c(S(=O)(=O)Nc2cc3c(cc2Oc2cc(OCCCCN(C)C)cc(OCC(F)(F)F)c2)n(C)c(=O)n3C)cnn1C` [Example 212, N-(6-(3-(4-(dimethylamino)butoxy)-5-(2,2,2-trifluoroethoxy)phenoxy)-1,3-dimethyl-2-oxo-2,3-dihydro-1H-benzo[d]imidazol-5-yl)-1,5-dimethyl-1H-pyrazole-4-sulfonamide], for which the half-inhibitory concentration (IC50) was 1 to 10 nM.
The same measure for `CCCOc1cc(OCCCCN)cc(Oc2cc3c(cc2NS(=O)(=O)c2cn(C)c(C)n2)n(C)c(=O)n3C)c1` [Example 214]: 10 to 100 nM; for `Cc1c(S(=O)(=O)Nc2cc3c(cc2Oc2cc(OCCCCCCN(C)C)cc(OCC(F)(F)F)c2)n(C)c(=O)n3C)cnn1C` [Example 215, N-(6-(3-((6-(dimethylamino)hexyl)oxy)-5-(2,2,2-trifluoroethoxy)phenoxy)-1,3-dimethyl-2-oxo-2-3,-dihydro-1H-benzo[d]imidazol-5-yl)-1,5-dimethyl-1H-pyrazole-4-sulfonamide]: 1 to 10 nM.
Take `CCCOc1cc(OCCCN)cc(Oc2cc3c(cc2NS(=O)(=O)c2ccc(OC)c(OC)c2)n(C)c(=O)n3C)c1` [Example 216, N-(6-(3-(3-aminopropoxy)-5-propoxyphenoxy)-1,3-dimethyl-2-oxo-2,3-dihydro-1H-benzo[d]imidazol-5-yl)-3,4-dimethoxybenzenesulfonamide]: the IC50 lay within 10 to 100 nM.
The same measure for `CCCOc1cc(OCCCCN(C)C)cc(Oc2cc3c(cc2NS(=O)(=O)c2cnn(C)c2C)n(C)c(=O)n3C)c1` [Example 217, N-(6-(3-(4-(dimethylamino)butoxy)-5-propoxyphenoxy)-1,3-dimethyl-2-oxo-2,3-dihydro-1H-benzo[d]imidazol-5-yl)-1,5-dimethyl-1H-pyrazole-4-sulfonamide]: 10 to 100 nM; for `CCCOc1cc(OCCCCCCN)cc(Oc2cc3c(cc2NS(=O)(=O)C2CC2)n(C)c(=O)n3C)c1` [Example 218, N-(6-(3-((6-aminohexyl)oxy)-5-propoxyphenoxy)-1,3-dimethyl-2-oxo-2,3-dihydro-1H-benzo[d]imidazol-5-yl)cyclopropanesulfonamide]: 10 to 100 nM.
The same measure for `CCCOc1cc(OCCCCCCN(C)C)cc(Oc2cc3c(cc2NS(=O)(=O)c2cnn(C)c2C)n(C)c(=O)n3C)c1` [Example 219, N-(6-(3-((6-(dimethylamino)hexyl)oxy)-5-propoxyphenoxy)-1,3-dimethyl-2-oxo-2,3-dihydro-1H-benzo[d]imidazol-5-yl)-1,5-dimethyl-1H-pyrazole-4-sulfonamide]: 1 to 10 nM; for `CCCOc1cc(OCCCCCCN)cc(Oc2cc3c(cc2NS(=O)(=O)c2cccc(C(=O)O)c2)n(C)c(=O)n3C)c1` [Example 220, 3-(N-(6-(3-((6-aminohexyl)oxy)-5-propoxyphenoxy)-1,3-dimethyl-2-oxo-2,3-dihydro-1H-benzo[d]imidazol-5-yl)sulfamoyl)benzoic acid]: 100 to 1000 nM; for `COc1ccc(S(=O)(=O)Nc2cc3c(cc2Oc2cccc(OCC(F)(F)F)c2)n(C)c(=O)n3C)cn1` [Example 221, N-(1,3-dimethyl-2-oxo-6-(3-(2,2,2-trifluoroethoxy)phenoxy)-2,3-dihydro-1H-benzo[d]imidazol-5-yl)-6-methoxypyridine-3-sulfonamide]: 10 to 100 nM.
Take `Cc1cc(OCC(C)C)cc(Oc2cc3c(cc2NS(=O)(=O)c2cn(C)cn2)n(C)c(=O)n3C)c1` [Example 222, N-(6-(3-isobutoxy-5-methylphenoxy)-1,3-dimethyl-2-oxo-2,3-dihydro-1H-benzo[d]imidazol-5-yl)-1-methyl-1H-imidazole-4-sulfonamide]: the half-maximal inhibitory concentration (IC50) lay in the range of 10 to 100 nM.
Regarding `CC(C)COc1cc(Cl)cc(Oc2cc3c(cc2NS(=O)(=O)c2cn(C)cn2)n(C)c(=O)n3C)c1` [Example 223, N-(6-(3-chloro-5-isobutoxyphenoxy)-1,3-dimethyl-2-oxo-2,3-dihydro-1H-benzo[d]imidazol-5-yl)-1-methyl-1H-imidazole-4-sulfonamide], the IC50 was 10 to 100 nM.
Turning to `CC(C)COc1cc(F)cc(Oc2cc3c(cc2NS(=O)(=O)c2cn(C)cn2)n(C)c(=O)n3C)c1` [Example 224, N-(6-(3-fluoro-5-isobutoxyphenoxy)-1,3-dimethyl-2-oxo-2,3-dihydro-1H-benzo[d]imidazol-5-yl)-1-methyl-1H-imidazole-4-sulfonamide], the 50% inhibitory concentration (IC50) lay in the range of 10 to 100 nM.
The result for `CCOc1cc(OCC(C)C)cc(Oc2cc3c(cc2NS(=O)(=O)c2cn(C)cn2)n(C)c(=O)n3C)c1` [Example 225, N-(6-(3-ethoxy-5-isobutoxyphenoxy)-1,3-dimethyl-2-oxo-2,3-dihydro-1H-benzo[d]imidazol-5-yl)-1-methyl-1H-imidazole-4-sulfonamide] reads 10 to 100 nM; that for `CCc1cc(OCC(C)C)cc(Oc2cc3c(cc2NS(=O)(=O)c2cn(C)cn2)n(C)c(=O)n3C)c1` [Example 226, N-(6-(3-ethyl-5-isobutoxyphenoxy)-1,3-dimethyl-2-oxo-2,3-dihydro-1H-benzo[d]imidazol-5-yl)-1-methyl-1H-imidazole-4-sulfonamide], 10 to 100 nM; that for `Cn1cnc(S(=O)(=O)Nc2cc3c(cc2Oc2cccc(OCCCC(=O)O)c2)n(C)c(=O)n3C)c1` [Example 227, 4-(3-(1,3-dimethyl-6-(1-methyl-1H-imidazole-4-sulfonamido)-2-oxo-2,3-dihydro-1H-benzo[d]imidazol-5-yloxy)phenoxy)butanoic acid], more than 1000 nM.
The result for `Cn1cnc(S(=O)(=O)Nc2cc3c(cc2Oc2cccc(OCCCCC(=O)O)c2)n(C)c(=O)n3C)c1` [Example 228] reads 100 to 1000 nM; that for `Cc1nc(S(=O)(=O)Nc2cc3c(cc2Oc2cccc(OCC4CCNCC4)c2)n(C)c(=O)n3C)cn1C` [Example 229, N-(1,3-dimethyl-2-oxo-6-(3-(piperidin-4-ylmethoxy)phenoxy)-2,3-dihydro-1H-benzo[d]imidazol-5-yl)-1,2-dimethyl-1H-imidazole-4-sulfonamide], 100 to 1000 nM.
The result for `CC(CO)COc1cccc(Oc2cc3c(cc2NS(=O)(=O)c2cn(C)cn2)n(C)c(=O)n3C)c1` (stereo not drawn) [Example 230, N-(6-(3-(3-hydroxy-2-methylpropoxy)phenoxy)-1,3-dimethyl-2-oxo-2,3-dihydro-1H-benzo[d]imidazol-5-yl)-1-methyl-1H-imidazole-4-sulfonamide] reads 100 to 1000 nM; that for `Cn1cnc(S(=O)(=O)Nc2cc3c(cc2Oc2cccc(OCC(C)(O)CO)c2)n(C)c(=O)n3C)c1` (stereo not drawn) [Example 231, N-{6-[3-(2,3-dihydroxy-2-methylpropoxy)phenoxy]-1,3-dimethyl-2-oxo-2,3-dihydro-1H-1,3-benzodiazol-5-yl}-1-methyl-1H-imidazole-4-sulfonamide], 100 to 1000 nM; that for `COC(C)(CO)COc1cccc(Oc2cc3c(cc2NS(=O)(=O)c2cn(C)cn2)n(C)c(=O)n3C)c1` (stereo not drawn) [Example 232, N-{6-[3-(3-hydroxy-2-methoxy-2-methylpropoxy)phenoxy]-1,3-dimethyl-2-oxo-2,3-dihydro-1H-1,3-benzodiazol-5-yl}-1-methyl-1H-imidazole-4-sulfonamide], 100 to 1000 nM.
As to `COCC(C)(O)COc1cccc(Oc2cc3c(cc2NS(=O)(=O)c2cn(C)cn2)n(C)c(=O)n3C)c1` (stereo not drawn) [Example 233, N-{6-[3-(2-hydroxy-3-methoxy-2-methylpropoxy)phenoxy]-1,3-dimethyl-2-oxo-2,3-dihydro-1H-1,3-benzodiazol-5-yl}-1-methyl-1H-imidazole-4-sulfonamide], the IC50 lay within 100 to 1000 nM.
